Experimental findings from patent US6218393A, “Anthranilic acid derivatives as multi drug resistance modulators” (priority 1997, dated 2001) are described below.

What is called IC50 is the concentration at which inhibition is half-maximal.

Data set [1] has as its system AR 1.0 cells. Kind of data set: Potentiation index with doxorubicin titration. In kind it is cell-based, mouse. The conditions noted are these: for Potentiation Index at RMA concentration 10 nM: Table C2, RMA 10 nM; for Potentiation Index at RMA concentration 30 nM: Table C2, RMA 30 nM; for Potentiation Index at RMA concentration 100 nM: Table C2, RMA 100 nM; for Potentiation Index at RMA concentration 300 nM: Table C2, RMA 300 nM. The method, boiled down:
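Doxorubicin IC50 in AR 1.0 cells (MDR subline of EMT6 mouse mammary carcinoma) determined by sulphorhodamine B after 4-day culture across 0.263 nM-17.24 μM, with and without a fixed dose of test compound; their ratio gives the PI.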

In data set [2] the test system is AR 1.0 cells. Kind of data set: Drug accumulation assay: daunorubicin accumulation in AR 1.0 cells. The conditions noted are these: Mus musculus, 100% = accumulation with verapamil 100 μM, 1 hr, 37° C. The class given is cell-based. The method, boiled down:
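Daunorubicin accumulation was measured in cells plated 48 h beforehand. These were AR 1.0 cells, an MDR-resistant derivative of mouse EMT6 mammary carcinoma, cultured at 37 °C in 5% CO2 in RPMI 1640 plus 10% foetal calf serum and 2 mM glutamine.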

In data set [3] the test system is AR 1.0 cells. As to the kind of experiment: Potentiation of doxorubicin toxicity: proliferation assay (sulphorhodamine B). The class given is cell-based, mouse. An excerpt: (a) Selected compounds of formula (I) were examined for their ability to potentiate the toxicity of doxorubicin in AR 1.0 cells.
The mark [4] stands for this setting: Mus musculus, 96 h, compound alone, four day proliferation, read-out: Compound Toxicity (IC50).
[5] abbreviates: with fixed doxorubicin 0.34 μm, four days, 5760 min, read-out: Toxicity with Cytotoxic Agent (IC50).

Take `COc1cc2c(cc1OC)CN(CCc1ccc(NC(=O)c3ccc(N)cc3NC(=O)c3cnc4ccccc4c3)cc1)CC2` [compound 9589, Quinoline-3-carboxylic acid (2-{4-[2-(6,7-dimethoxy-3,4-dihydro-1H-isoquinolin-2-yl)-ethyl]-phenylcarbamoyl}-5-amino-phenyl)-amide]: the “Potentiation Index at RMA concentration 10 nM” value with AR 1.0 cells [1] was 1. Moreover, the “Potentiation Index at RMA concentration 30 nM” value in the data set with AR 1.0 cells [1] came to 1. The IC50 amounted to 1 µM in the data set with AR 1.0 cells [2] and 36.8 µM in the data set on AR 1.0 cells [3] (setting [4]).
For the compound `COc1cc2c(cc1OC)CN(CCc1ccc(NC(=O)c3ccccc3NC(=O)c3ccc(Cl)c(Cl)c3)cc1)CC2` [compound 9536, 2-(3,4-Dichloro-benzoylamino)-N-{4-[2-(6,7-dimethoxy-3,4-dihydro-1H-isoquinolin-2-yl)-ethyl]-phenyl}-benzamide], the “Potentiation Index at RMA concentration 100 nM” value in the data set with AR 1.0 cells [1] came out at 32. Also, the “Potentiation Index at RMA concentration 300 nM” value in the data set on AR 1.0 cells [1] was 128. Further, the results for the half-inhibitory concentration (IC50) in the data set with AR 1.0 cells [2], in the data set on AR 1.0 cells [3] (setting [4]) and in the data set with AR 1.0 cells [3] (setting [5]) were 0.45 µM, 2.65 µM and 0.015 µM, respectively.
As to `COc1cc2c(cc1OC)CN(CCc1ccc(NC(=O)c3cc(C)ccc3NC(=O)c3cnc4ccccc4n3)cc1)CC2` [compound 9543, Quinoxaline-2-carboxylic acid (2-{4-[2-(6,7-dimethoxy-3,4-dihydro-1H-isoquinolin-2-yl)-ethyl]-phenylcarbamoyl}-4-methyl-phenyl)-amide], in the data set on AR 1.0 cells [1], the “Potentiation Index at RMA concentration 10 nM” value came out at 24, the “Potentiation Index at RMA concentration 30 nM” value came to 120, the “Potentiation Index at RMA concentration 100 nM” value worked out at 150 and the “Potentiation Index at RMA concentration 300 nM” value was found to be 150. The compound also registered an IC50 with AR 1.0 cells [2] of 0.07 µM. In the data set on AR 1.0 cells [3] (setting [4]), the IC50 came out at 0.9 µM. The IC50 in the data set on AR 1.0 cells [3] (setting [5]) was found to be 0.008 µM.
Consider `COc1cc2c(cc1OC)CN(CCc1ccc(NC(=O)c3ccccc3NC(=O)c3ccc(C)nc3)cc1)CC2` [compound 9557, N-(2-{4-[2-(6,7-Dimethoxy-3,4-dihydro-1H isoquinolin-2-yl)-ethyl]-phenylcarbamoyl}phenyl)-6-methyl-nicotinamide], for which, in the data set with AR 1.0 cells [1], the “Potentiation Index at RMA concentration 10 nM” value is 1.2. The “Potentiation Index at RMA concentration 100 nM” value with AR 1.0 cells [1] is 100. For the same compound, the half-inhibitory concentration (IC50) in the data set on AR 1.0 cells [2] is 0.012 µM; in the data set with AR 1.0 cells [3] (setting [4]) it was 9 µM; in the data set with AR 1.0 cells [3] (setting [5]), 0.02 µM.
On to `COc1cc2c(cc1OC)CN(CCc1ccc(NC(=O)c3cc(OC)c(OC)cc3NC(=O)c3cnc4ccccc4n3)cc1)CC2` [compound 9573, Quinoxaline-2-carboxylic acid (2-{4-[2-(6,7-dimethoxy-3,4-dihydro-1H-isoquinolin-2-yl)-ethyl]-phenylcarbamoyl}-4,5-dimethoxy-phenyl)-amide], for which, in the data set with AR 1.0 cells [1], the “Potentiation Index at RMA concentration 10 nM” value stood at 83, the “Potentiation Index at RMA concentration 30 nM” value was 94 and the “Potentiation Index at RMA concentration 100 nM” value is 100. In the data set on AR 1.0 cells [2], this compound came in with an IC50 of 0.0095 µM. Further, in the data set with AR 1.0 cells [3] (setting [4]), the 50% inhibitory concentration (IC50) came out at 4 µM.
In the case of `O=C(Nc1ccccc1C(=O)Nc1ccc(CCN2CCc3ccccc3C2)cc1)c1cnc2ccccc2c1` [compound 9577, Quinoline-3-carboxylic acid (2-{4-[2-(3,4-dihydro-1H-isoquinolin-2-yl)-ethyl]-phenylcarbamoyl}-phenyl)-amide], in the data set with AR 1.0 cells [1], the “Potentiation Index at RMA concentration 10 nM” value is listed as 2.2, the “Potentiation Index at RMA concentration 30 nM” value is reported as 18 and the “Potentiation Index at RMA concentration 100 nM” value turned out to be 112. The compound also displayed an IC50 with AR 1.0 cells [2] of 0.32 µM. The IC50 in the data set with AR 1.0 cells [3] (setting [4]) was 7.7 µM.
Turning to `COc1cc2c(cc1OC)CN(CCNC(=O)c1ccccc1NC(=O)c1ccc(OC3CCCCC3)cc1)CC2` [compound 9459, 2-(4-Cyclohexyloxy-benzoylamino)-N-[2-(6,7-dimethoxy-3,4-dihydro-1H-isoquinolin-2-yl)-ethyl]-benzamide], the “Potentiation Index at RMA concentration 300 nM” value in the data set on AR 1.0 cells [1] turned out to be 45. Moreover, in the data set with AR 1.0 cells [1] (Table C2, RMA 500 nM), the “Potentiation Index at RMA concentration 500 nM” value came out at 112. Moreover, the figures for the IC50 in the data set on AR 1.0 cells [2], in the data set on AR 1.0 cells [3] (setting [4]) and in the data set on AR 1.0 cells [3] (setting [5]) were 0.65 µM, 8.5 µM and 0.09 µM, respectively.
